Results from publication PMC5700923, “Second messenger analogues highlight unexpected substrate sensitivity of CD38: total synthesis of the hybrid “L-cyclic inosine 5′-diphosphate ribose”” (Scientific Reports, 2017).

Assays:
Aplysia cyclase = target: T1, Aplysia cyclase (Aplysia californica, UniProt P29241); test: X-ray crystallography, […] cIDPR (authors' unpublished data, Supplementary Figure S2); format: binding
T1 construct: wild-type
T1 sequence (P29241 25-282): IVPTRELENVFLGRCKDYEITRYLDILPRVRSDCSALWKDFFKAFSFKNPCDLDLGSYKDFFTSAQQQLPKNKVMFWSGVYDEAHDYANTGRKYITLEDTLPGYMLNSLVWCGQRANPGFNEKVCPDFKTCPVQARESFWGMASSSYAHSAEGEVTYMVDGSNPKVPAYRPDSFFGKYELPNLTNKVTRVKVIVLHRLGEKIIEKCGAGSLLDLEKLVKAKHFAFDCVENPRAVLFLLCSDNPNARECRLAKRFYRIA

CD38 (shCD38) [1] = target: T2, CD38 (shCD38) (Homo sapiens, UniProt P28907); test: inhibition of cADPR hydrolysis, fluorimetric cycling assay; also hydrolysed by shCD38 (RP-HPLC); format: biochemical; conditions: read-out: L-Ribose / IC50
T2 construct: human CD38 catalytic domain (shCD38)
T2 sequence (P28907 45-300 limits assumed): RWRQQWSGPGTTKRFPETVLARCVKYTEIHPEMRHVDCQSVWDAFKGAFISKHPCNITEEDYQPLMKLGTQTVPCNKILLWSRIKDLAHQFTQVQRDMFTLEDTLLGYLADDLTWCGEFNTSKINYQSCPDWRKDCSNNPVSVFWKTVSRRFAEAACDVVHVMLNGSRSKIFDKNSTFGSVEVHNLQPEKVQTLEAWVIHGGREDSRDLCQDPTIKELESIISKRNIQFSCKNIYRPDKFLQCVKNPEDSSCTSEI

CD38 (shCD38) [2] = target: T2, CD38 (shCD38); test: inhibition of cADPR hydrolysis, fluorimetric cycling assay; format: biochemical; conditions: read-out: L-Ribose / IC50

## O=c1c2ncn3c2ncn1[C@@H]1O[C@H](COP(=O)(O)OP(=O)(O)OC[C@H]2O[C@@H]3[C@H](O)[C@@H]2O)[C@@H](O)[C@H]1O [compound 2, cIDPR]
Aplysia cyclase
  ligand species seen in crystal structure: both linear IDPR and the cyclic N1-cIDPR are present and close to each other, with cIDPR in an upside-down orientation

## O=c1c2ncn3c2ncn1[C@H]1O[C@@H](COP(=O)(O)OP(=O)(O)OC[C@H]2O[C@@H]3[C@H](O)[C@@H]2O)[C@H](O)[C@@H]1O [compound 5, L-cIDPR]
CD38 (shCD38) [1]
  IC50: 526 ± 36 µM

## Nc1nc2c(=O)n3cnc2n1[C@@H]1O[C@H](COP(=O)(O)OP(=O)(O)OC[C@@H]2O[C@H]3[C@@H](O)[C@H]2O)[C@@H](O)[C@H]1O [compound 7, 8-NH2-L-cIDPR]
CD38 (shCD38) [2]
  IC50: 21 ± 2 µM
